“And” between values parts separate entries of the source, which are not always exact repeats. Equal entries are not always repeated. Inconclusive results and toxic doses are left out. Cut-off read from the data, not from the text of the source: active = T/C of 150% or more; inactive = T/C below 125%.
Tested on: L1210 leukemia ip in BDF1 mice, survival T/C
Experiment: NCI In Vivo Anticancer Drug Screen. Data for tumor model L1210 Leukemia (intraperitoneal) in B6D2F1 (BDF1) mice
Conditions: endpoint: mean survival time, higher = longer survival
Method in brief: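 Survival endpoint. Drug-treated group vs vehicle group, expressed as T divided by C. Tumor passaged by transplantation.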

[1] = dose: 100.0 mg/kg/injection, schedule: Q01DX001 (ip), vehicle: saline
[2] = dose: 200.0 mg/kg/injection, schedule: Q01DX001 (ip), vehicle: saline
[3] = dose: 400.0 mg/kg/injection, schedule: Q01DX001 (ip), vehicle: saline
[4] = dose: 50.0 mg/kg/injection, schedule: Q01DX009 (ip), vehicle: saline
[5] = dose: 100.0 mg/kg/injection, schedule: Q04DX003 (ip), vehicle: saline
[6] = dose: 200.0 mg/kg/injection, schedule: Q01DX009 (ip), vehicle: Klucel (hydroxypropylcellulose) (HPC)
[7] = dose: 400.0 mg/kg/injection, schedule: Q01DX009 (ip), vehicle: Klucel (hydroxypropylcellulose) (HPC)
[8] = dose: 100.0 mg/kg/injection, schedule: Q01DX009 (ip), vehicle: Klucel (hydroxypropylcellulose) (HPC)

Measured: T/C

C=COC(=O)CCCCCCC (tested in a mixture with another compound)
inactive: dose: 4.0 mg/kg/injection, schedule: Q01DX001 (ip), vehicle: acetone 89 % of control | dose: 5.0 mg/kg/injection, schedule: Q01DX001 (ip), vehicle: acetone 94 % of control | dose: 5.0 mg/kg/injection, schedule: Q01DX001 (ip), vehicle: saline 97 % of control | dose: 6.0 mg/kg/injection, schedule: Q01DX001 (ip), vehicle: acetone 106 % of control | dose: 10.0 mg/kg/injection, schedule: Q01DX001 (ip), vehicle: acetone 93 % of control | dose: 10.0 mg/kg/injection, schedule: Q01DX001 (ip), vehicle: saline 87 % of control | dose: 20.0 mg/kg/injection, schedule: Q01DX001 (ip), vehicle: acetone 92 % of control | dose: 20.0 mg/kg/injection, schedule: Q01DX001 (ip), vehicle: saline 101 % of control | dose: 40.0 mg/kg/injection, schedule: Q01DX001 (ip), vehicle: acetone 95 % of control | dose: 40.0 mg/kg/injection, schedule: Q01DX001 (ip), vehicle: saline 97 % of control | dose: 80.0 mg/kg/injection, schedule: Q01DX001 (ip), vehicle: acetone 90 % of control | dose: 80.0 mg/kg/injection, schedule: Q01DX001 (ip), vehicle: saline 102 % of control | [1] 110 % of control and 104 % of control and 105 % of control | [2] 94 % of control | [3] 100 % of control and 101 % of control

CN(C)CCCN1CCC2(CC[C@H]3CCCC[C@@H]3C2)CC1
inactive: dose: 9.0 mg/kg/injection, schedule: Q01DX015 (ip), vehicle: saline 91 % of control | dose: 18.0 mg/kg/injection, schedule: Q01DX015 (ip), vehicle: saline 97 % of control | dose: 25.0 mg/kg/injection, schedule: Q01DX009 (ip), vehicle: saline 101 % of control | dose: 25.0 mg/kg/injection, schedule: Q04DX003 (ip), vehicle: saline 90 % of control | dose: 36.0 mg/kg/injection, schedule: Q01DX015 (ip), vehicle: saline 101 % of control | [4] 101 % of control | dose: 50.0 mg/kg/injection, schedule: Q04DX003 (ip), vehicle: saline 93 % of control | dose: 72.0 mg/kg/injection, schedule: Q01DX015 (ip), vehicle: saline 114 % of control | dose: 100.0 mg/kg/injection, schedule: Q01DX009 (ip), vehicle: saline 109 % of control | [5] 104 % of control

COc1ccc2c(c1)CCC1C2CCC2(C)C(=O)C(n3cnc4c(=S)nc[nH]c43)CC12 (stereo not drawn)
inactive: dose: 100.0 mg/kg/injection, schedule: Q01DX001 (sc), vehicle: steriod suspending solution 106 % of control | dose: 200.0 mg/kg/injection, schedule: Q01DX001 (sc), vehicle: steriod suspending solution 110 % of control | dose: 400.0 mg/kg/injection, schedule: Q01DX001 (sc), vehicle: steriod suspending solution 110 % of control

c1ccc(OC2COC(Oc3ccccc3)CO2)cc1 (stereo not drawn)
inactive: [1] 97 % of control | dose: 100.0 mg/kg/injection, schedule: Q01DX009 (ip), vehicle: acetone 97 % of control | [5] 103 % of control | [2] 87 % of control | dose: 200.0 mg/kg/injection, schedule: Q01DX009 (ip), vehicle: acetone 92 % of control | dose: 200.0 mg/kg/injection, schedule: Q04DX003 (ip), vehicle: saline 97 % of control | [3] 90 % of control | dose: 400.0 mg/kg/injection, schedule: Q01DX009 (ip), vehicle: acetone 87 % of control | dose: 400.0 mg/kg/injection, schedule: Q04DX003 (ip), vehicle: saline 95 % of control

COc1cccc(NC(=S)NC2CCCCCCCCCCC2)c1
inactive: dose: 100.0 mg/kg/injection, schedule: Q04DX002 (ip), vehicle: gum acacia 94 % of control | dose: 200.0 mg/kg/injection, schedule: Q04DX002 (ip), vehicle: gum acacia 94 % of control | dose: 400.0 mg/kg/injection, schedule: Q04DX002 (ip), vehicle: gum acacia 94 % of control

CN1CN(c2ccccc2)C2(CCN(Cc3nc4ccc(Cl)cc4[nH]3)CC2)C1=O
inactive: dose: 100.0 mg/kg/injection, schedule: Q01DX001 (ip), vehicle: Klucel (hydroxypropylcellulose) (HPC) 101 % of control | dose: 200.0 mg/kg/injection, schedule: Q01DX001 (ip), vehicle: Klucel (hydroxypropylcellulose) (HPC) 93 % of control | dose: 400.0 mg/kg/injection, schedule: Q01DX001 (ip), vehicle: Klucel (hydroxypropylcellulose) (HPC) 91 % of control

COc1cc(OC)c(NC(=S)Nc2ccccc2C(F)(F)F)cc1Cl
inactive: dose: 100.0 mg/kg/injection, schedule: Q04DX002 (ip), vehicle: Klucel (hydroxypropylcellulose) (HPC) 106 % of control | [6] 88 % of control | dose: 200.0 mg/kg/injection, schedule: Q04DX002 (ip), vehicle: Klucel (hydroxypropylcellulose) (HPC) 92 % of control | [7] 95 % of control | dose: 400.0 mg/kg/injection, schedule: Q04DX002 (ip), vehicle: Klucel (hydroxypropylcellulose) (HPC) 95 % of control

CC(C)(C)C#N
inactive: [1] 109 % of control | [2] 101 % of control | [3] 95 % of control

CC1OC(=O)C(C(C)C)NC(=O)C(C(C)C)OC(=O)C(C(C)C)NC(=O)C(C)OC(=O)C(C(C)C)NC(=O)C(C(C)C)OC(=O)C(C(C)C)NC(=O)C(C)OC(=O)C(C(C)C)NC(=O)C(C(C)C)OC(=O)C(C(C)C)NC1=O (stereo not drawn)
inactive: dose: 0.13 mg/kg/injection, schedule: Q01DX001 (ip), vehicle: saline 103 % of control | dose: 0.25 mg/kg/injection, schedule: Q01DX001 (ip), vehicle: saline 101 % of control | dose: 0.5 mg/kg/injection, schedule: Q01DX001 (ip), vehicle: saline 100 % of control | dose: 1.0 mg/kg/injection, schedule: Q01DX001 (ip), vehicle: saline 98 % of control | dose: 1.25 mg/kg/injection, schedule: Q01DX009 (ip), vehicle: saline with Tween-80 113 % of control | dose: 2.5 mg/kg/injection, schedule: Q01DX009 (ip), vehicle: saline with Tween-80 121 % of control | dose: 5.0 mg/kg/injection, schedule: Q01DX009 (ip), vehicle: saline with Tween-80 113 % of control | dose: 10.0 mg/kg/injection, schedule: Q01DX009 (ip), vehicle: saline with Tween-80 90 % of control

Cc1cccc(Cl)c1NC(=O)Nc1cc([N+](=O)[O-])ccc1O
inactive: dose: 25.0 mg/kg/injection, schedule: Q01DX009 (ip), vehicle: Klucel (hydroxypropylcellulose) (HPC) 91 % of control | dose: 50.0 mg/kg/injection, schedule: Q01DX009 (ip), vehicle: Klucel (hydroxypropylcellulose) (HPC) 91 % of control | [8] 96 % of control and 87 % of control | [6] 91 % of control | [7] 88 % of control

CCCCC(CC)COP(=O)(OCC(CC)CCCC)c1ccccc1 (stereo not drawn)
inactive: dose: 50.0 mg/kg/injection, schedule: Q01DX001 (ip), vehicle: saline 100 % of control | [1] 100 % of control

Nc1nnc(N)c2nc(-c3ccccc3)c(-c3ccccc3)nc12
inactive: [8] 101 % of control | [6] 101 % of control

COc1cccc(/C=N\N=C\c2cccc(OC)c2OC)c1OC
inactive: [4] 120 % of control | dose: 200.0 mg/kg/injection, schedule: Q01DX009 (ip), vehicle: saline 110 % of control

COc1ccc2ccc(OC)c(C=O)c2c1
inactive: dose: 75.0 mg/kg/injection, schedule: Q01DX009 (ip), vehicle: Klucel (hydroxypropylcellulose) (HPC) 98 % of control | dose: 150.0 mg/kg/injection, schedule: Q01DX009 (ip), vehicle: Klucel (hydroxypropylcellulose) (HPC) 101 % of control | dose: 300.0 mg/kg/injection, schedule: Q01DX009 (ip), vehicle: Klucel (hydroxypropylcellulose) (HPC) 98 % of control
